Experiments:
[1] = system: A-375 melanoma; test: Therapeutic efficacy of LipoCam in A-375 melanoma of nude mice (FIG. 12); type: in vivo, NMRI-nude mice; settings: iv three times a week for three weeks at equitoxic doses, start at about 100 mm^3
Description: (§1) NMRI-nude mice were purchased from Elevage Janvier and housed in isolated ventilated cages under save environmental conditions (SPF facility, 22° C., 30-70% humidity, 12 h light/dark cycle) with food and water ad libitum. Experimental design was reviewed and approved by local government.
(§2) Tumor cells (A-375 human melanoma cell line, ATCC Nr.: CRL-1619) were grown as described in the data sheet supplied by ATCC. Tumor cells (5×10^6 in PBS) were inoculated s.c. in the right dorsal flank of mice in a volume of 50 μl on day 0.
Mice were assigned to the experimental groups (8 animals per cage), housed and handled (including monitoring of the body weight gain) at least five days before tumor inoculation (=day −6 to 0). […] Equitoxic doses of the compounds were determined in separate experiments, where toxicity was evaluated based on haematological parameters, body weight and animal clinical observations (see Tab. 3). […] Animals were clinically monitored during the whole experiment, monitoring of tumor size was performed three times a week. The tumor dimensions were measured by caliper and the tumor size was calculated according to the following formula: V=πL W^2/6 (L=greatest length, W=width of perpendicular axis). The body weight of individual animals was monitored at least twice during handling period, after tumor inoculation and after start of treatment. […]

[2] = system: A-375 melanoma; test: Therapeutic efficacy of LipoCam IV and VI in A-375 melanoma of nude mice (FIG. 13); type: in vivo, NMRI-nude mice; settings: 1 and 2 mg/kg iv three times a week for three weeks
Description: as §1, §2
Mice were assigned to the experimental groups (8 animals per cage), housed and handled (including monitoring of the body weight gain) at least five days before tumor inoculation (=day −6 to 0). […] Toxicity was evaluated based on hematological parameters, body weight and animal clinical observations. […]
Animals were clinically monitored during the whole experiment, monitoring of tumor size was performed three times a week. The tumor dimensions were measured by caliper and the tumor size was calculated according to the following formula: V=πL W^2/6 (L=greatest length, W=width of perpendicular axis). The body weight of individual animals was monitored at least twice during handling period, after tumor inoculation and after start of treatment. […] The number of red and white blood cells and platelets were determined using an automated cell counter (Abbott Cell Dyn 3500).

[3] = Fluorescence anisotropy of CPT in lipid suspensions; type: physicochemical; settings: 10 mM Tris-buffer pH 7.5, 10% trehalose
Description: These finding are corroborated by fluorescence anisotropy measurements of the CPT. In this experiment, an increase of the fluorescence anisotropy is expected if the fluorophore is inserted into a liposome and thus its mobility is decreased. […] DOTAP and DOPC both comprise unsaturated fatty acid chains, but DOTAP is positively charged while DOPC is neutral.
For efficient binding, in addition to charge, the phase state of the fatty acid chains is important. […] DOTAP has its main phase transition (Tm) near 37° C. […] Below that temperature the fatty acid chains are in the gel phase (a crystalline like state) and above they are in the liquid crystalline (fluid-like) state.
FIG. 9: Fluorescence anisotropy measurements of CPT in lipid suspensions from DOTAP and DOPC and as prepared by different methods. […]
FIG. 10: Comparison of fluorescence anisotropy measurements with DOTAP and DMTAP Measurements with CPT and with 10-OH-CPT are shown. […]
In order to get further information on the CPT-lipid interaction form an independent method, fluorescence anisotropy measurements were performed. […] The fluorescence anisotropy was taken as a measure for the binding strength of CPT to the liposome. […]
Fluorescence anisotropy measurements from liposomes with two different cationic lipids, DOTAP and DMTAP, and two different CPT drugs (CPT and 10-OH-CPT) are compared. […]

SMILES | Anti-tumor effect (tumor volume) [1] | Order of antitumor efficacy [2] | Fluorescence anisotropy (measure of binding strength of CPT to the liposome) [3]
CC[C@@](O)(C(=O)[O-])c1cc2n(c(=O)c1CO)Cc1cc3ccccc3nc1-2.[Na+] [CPT-Na-Carboxylate] | only a retardation | – | –
CCC(O)(C(=O)O)c1cc2n(c(=O)c1CO)Cc1cc3ccccc3nc1-2 (stereo not shown) [CPT-carboxylate] | – | LipoCam IV (2 mg/kg)>LipoCam VI (1 mg/kg)>CPT-carboxylate (2 mg/kg)>CPT-carboxylate (1 mg/kg) | zero
CC[C@@]1(O)C(=O)OCc2c1cc1n(c2=O)Cc2cc3cc(O)ccc3nc2-1 [Formulation 10-OH-CPT, 10-Hydroxy-camptothecin] | – | – | higher binding efficacy
